Here are results for 65 compounds from a melting point compilation (Tetko et al.; mined from patent text by program, amines drawn as free bases though some values may be those of a salt).

As usually defined, the melting point is the temperature, or range, at which the solid turns liquid.

As to `CCOC(=O)c1c(C(=O)OCC)c(-c2ccc3c(c2)OCO3)c2c3c(ccc2c1O)OCO3`, the melting point was 192 to 194 °C.
Compound `O=C(c1ccccc1C(c1ccc(O)cc1)c1ccc(O)cc1)N1CC2CCC(CC2)C1` came in with a melting point of 164 to 166 °C.
Consider `O=C(O)c1nc(C2CC2)nc(Cl)c1Cl`, for which the melting point lay within 126 to 127 °C.
For the compound `CNc1nc(Cc2ccc(OC)c(OC)c2)nc2sc(C#N)c(C)c12`, the melting point was in the range of 161 to 163 °C.
With `CN(c1cccc2cc(-c3ncc(CN4CCC5(CC4)CNC(=O)O5)s3)[nH]c12)S(=O)(=O)c1cccs1` the figure was 224 °C; with `Cc1oc(-c2ccccc2)nc1CCc1nc(CCl)cs1`, 89 to 90 °C; with `COc1c(C)c(-c2ccccc2)nn1N`, 92 to 94 °C.
With `CCCCn1c2ccc(C#N)cc2c2cc(C#N)ccc21` the figure was 215 to 217 °C; with `C[C@H](Oc1ccc(-c2cccc(OCC(N)=O)c2)cc1)[C@H](O)CCc1cccnc1`, 120 to 122 °C; with `CCn1c(=O)ccc2cnc(S(C)=O)nc21` (stereo not given), 202 to 203 °C.
Compound `Fc1ccc(N2CCN(CCCN(c3ccccc3)c3ccccc3)CC2)cc1` returned a melting point of 87 to 88 °C.
With `Cc1ccc(CN2CCC(c3cc(-c4ccc(Cl)cc4)[nH]n3)CC2)cc1` the figure was 181 to 183 °C; with `CCC(=O)OCC(=O)C12OCOC1CC1C3CCC4=CC(=O)C=CC4(C)C3C(O)CC12C` (stereo not given), 184 to 185 °C.
With `C=CC1C2OCC(O2)C(OCc2ccccc2)C1O` (stereo not given) the figure was 88 to 91 °C; with `CC1(C)C(C#N)C1(C)C`, 17 °C.
`Cn1cc(C=O)c(-c2ccc([N+](=O)[O-])o2)n1`: the melting point is 181 to 182 °C.
In the case of `COc1ccc2cc(C(=O)NCc3cc([N+](=O)[O-])cc([N+](=O)[O-])c3)c(=O)oc2c1`, the melting point was 233 °C.
`CN(C)C(=O)c1ccccc1Sc1ccc(F)cc1[N+](=O)[O-]` registered a melting point of 56 to 57 °C.
With `CCCc1c(OCCCCCOc2ccc(C(=O)CCCC(=O)O)cc2CCC(=O)O)ccc2c1OCCC2=O` the figure was 151 to 154 °C; with `O=C(Nc1ccc(Oc2ccccc2)cc1)Nc1ccc(C(F)(F)F)cc1`, 211 to 213 °C.
Regarding `C=Cc1ccc(NC(=O)N2CCN(c3ncnc4cc(OC)c(OC)cc34)CC2)cc1`, the melting point was in the range of 214 to 216 °C.
With `COc1ccc(C2C3=C(COC3=O)Nc3onc(-c4ccc(Cl)cc4)c32)cc1O` (stereo not given) the figure was 245 to 246 °C; with `Clc1ccc(Nc2nc(-c3cccc(Cl)n3)nc3ccccc23)cc1`, 212 to 213 °C; with `CCOc1ccc(C(=O)NCCc2ccc(S(=O)(=O)NC(=O)c3ccc(C(=O)NCC(=O)O)nc3)cc2)cc1OCC`, above 230 °C.
With `O=C1CC(c2cccc(-n3ccnc3)c2)=Nc2ccc(C3CC3)cc2N1` the figure was 198 to 200 °C; with `COc1ncccc1Nc1c(NC(NC(=O)c2ccc(Cl)cc2)C(C)(C)C)c(=O)c1=O` (stereo not given), 239 to 241 °C; with `COC1CCN(C(=O)COc2cc(-c3ccccc3)nc3ccccc23)CC1`, 96 °C.
With `O=C(c1ccccc1)c1ccc(-c2nc(COc3ccc(CCCCn4ccnc4)cc3)co2)cc1` the figure was 91 to 92 °C.
On to `COc1cccc(C(CCN2CCN(Cc3cccc(F)c3)CC2)C2(O)CCCCC2)c1` (stereo not given), for which the melting point was in the range of 131 to 133 °C.
With `Nc1ncc(C#Cc2ccc(Cl)cc2)c(Oc2ccc(O)cc2)n1` the figure was 250 to 251 °C.
With `CCOC(=O)C(C)(NC(=O)CNC=O)C(=O)OCC` the figure was 98 to 99 °C.
With `CC(=O)Nc1ncc(Sc2ccc(O)cc2)s1` the figure was 265 to 267 °C; with `N#Cc1c(Cl)nc2ccccc2c1Cl`, 157 °C.
Regarding `O=c1[nH]c2ccc(Cl)cc2c(=O)n1CCCS`, the melting point lay in the range of 255 to 257 °C.
With `O=C(c1ccc(Cl)cc1)C(Cn1cncn1)n1cncn1` (stereo not given) the figure was 204 °C.
With `COc1ccccc1N1CCN(CCCCCn2c(=O)[nH]c3cscc3c2=O)CC1` the figure was 148 to 153 °C; with `CCCCCCCCCCc1ccc(CNc2ccc(C(=O)O)cc2)cc1`, 135 to 136 °C.
In the case of `CC(C)(CNc1ccnc2cc(Cl)ccc12)NCc1ccc(Cl)c(Cl)c1`, the melting point was 178 to 179 °C.
With `NC(P(=O)(O)O)P(=O)(O)O` the figure was 255 to 265 °C.
With `C=CCc1cc(C(=O)OCC)ccc1O` the figure was 67 to 70 °C; with `CCCCN(CCCC)c1ccc(C=Cc2ccc(C(C#N)=c3ccc(=C(C#N)C#N)cc3)s2)c(OC)c1`, 211 to 214 °C.
`CCCc1c(OCCCOc2cccc3c2CCCC3)ccc2c1OC(CCCC(O)CO)(CCCC(O)CO)CC2=O` (stereo not given) registered a melting point of 87 to 88 °C.
As to `CCN(CC)CCCN1C(=O)NC(Cc2c[nH]c3ccccc23)C1=O` (stereo not given), the melting point is 90 °C.
As to `COc1cnc(CSc2nc3cc4c(cc3[nH]2)OC(F)(F)O4)cc1OC`, the melting point is 189 to 191 °C.
With `CC(=O)O[C@@H]1OCC[C@@H]1NC(=O)[C@H](CC(C)C)NC(=O)[C@H](CC(C)C)NC(=O)OCc1ccccc1` the figure was 175 to 176 °C.
Compound `CSC(=N[N+](=O)[O-])NCc1ccccc1` gave a melting point of 77 to 80 °C.
In turn, `Cn1nc(O)c(Cl)c1Cl` gave a melting point of 212 to 216 °C.
With `CS(=O)(=O)c1ccc(-c2ccccc2C=C2CCCCC2)cc1` the figure was 83 °C; with `CC(C)(C)OC(=O)c1ccc2[nH]ccc2c1`, 91 to 93 °C.
With `Cc1cn2c(=O)c3cc(S(=O)(=O)Cl)ccc3nc2s1` the figure was 206 to 209 °C.
With `O=c1ccc(-c2c(-c3ccccc3)nn3ccccc23)nn1C1CCN(Cc2ccccc2)CC1` the figure was 184 to 185 °C; with `Cc1c([N+](=O)[O-])cc2c(c1C)OC(C)(C)C2=O`, 131 to 132 °C.
`CCCc1nc2c(N)nc3ccccc3c2n1CCCCNC(=O)c1ccccc1` gave a melting point of 173 to 174 °C.
Take `C=Cc1cc(O)cc2nc(-c3ccc(O)c(F)c3F)oc12`: the melting point is 276 to 278 °C.
With `CCOCCn1cc2c(C3C(=O)Nc4ccc(Br)cc43)nc(NCCN3CCOCC3)nc2n1` (stereo not given) the figure was 276 to 278 °C; with `CS(=O)(=O)n1cc(-c2ccccc2)c(=O)n1-c1ccccn1`, 112 to 114 °C.
With `O=C1NC(=O)N(Cc2ccc(Cl)cc2)C1O` (stereo not given) the figure was 149 to 150 °C.
With `O=C1O[C@@H](CO)CN1c1ccc(C2=CCSCC2)c(F)c1` the figure was 119 to 122 °C; with `O=C(O)C=CC(=O)c1cccc([N+](=O)[O-])c1`, 199 to 201 °C; with `NC(=O)c1ncccc1OCCNCc1ccccc1`, 110 to 112 °C.
For the compound `COc1cc(CCl)c(CCNC(=O)C(F)(F)F)cc1OC`, the melting point came out at 140 °C.
Regarding `CCOC(=O)C12CCC(=O)N1C(=O)CC2`, the melting point lay within 77 to 82 °C.
With `Cc1c2c(nc3ccccc13)CCN(C(=O)C(F)(F)F)CC2` the figure was 147 °C; with `CSc1sc(-c2ccncc2)c2c1C(=O)CCC2`, 115 to 116 °C; with `COC(=O)/C=C/c1cccc(Br)c1`, 53 to 55 °C.
